The values below are quoted from earlier work in patent US20050100563A1, “Antifungal compositions and methods of treatment therewith” (priority 2001, published 2005).

The conditions of the data set: in water; stated in parentheses, no measurement described.

For the compound `[O]=[Sn]([F])[F]` [stannic oxyfluoride], the solubility result is given as “approximately 0.3%”.
